Key:
[1] = test system: E. cloacae; assay: Antibiotic treatment of E. cloacae tracked by FcMBL ELLecSA detection of MAMPs; conditions: for treatment efficacy from increase or spike in ELLecSA signal over time: 24-hr time course, E. cloacae 10e8 CFU/ml, 1 mg/ml antibiotic; for susceptibility of E. cloacae to the antibiotic: as stated for the test pathogen
[2] = test system: clinical isolate of E. coli; assay: Antibiotic treatment of clinical isolate of E. coli, MAMP detection by ELLecSA; assay type: cell-based; conditions: FIG. 16D strain
Method: FIGS. 16A-16E show lysing microbes by antibiotic treatment to increase MAMPs for FcMBL-coated bead capture and ELLecSA detection. In FIG. 16A, FcMBL coated beads were used to detect the presence of MAMPs from a clinical isolate of Enterobacter cloacae after 4 hour treatments of cefepime and meropenem. Detection of MAMPs was done by ELLecSA using rhMBL-hrp. In FIG. 16B, FcMBL coated beads were used to detect the presence of MAMPs from a clinical isolate of Salmonella typhimurium after 4 hour treatments of cefepime. Detection of MAMPs was done by ELLecSA using rhMBL-hrp. In FIG. 16C, FcMBL coated beads were used to detect the presence of MAMPs from a clinical isolate of E. coli after 4 hour treatment of cefepime and amikacin. Detection of MAMPs was done by ELLecSA using rhMBL-hrp. In FIG. 16D, FcMBL coated beads were used to detect the presence of MAMPs from a clinical isolate of E. coli after 4 hour treatment of cefepime and amikacin. Detection of MAMP's was done by ELLecSA using rhMBL-hrp. […]. Time course antibiotics were administered. Optimal MAMP detection occurred at 4 hours with 100 ug/mL cefepime.

[3] = test system: E. coli ATCC 8739; assay: In vivo antibiotic efficacy by ELLecSA in rats infected intraperitoneally; conditions: for ELLecSA levels, increase over baseline (no antibiotic): rats, 2e9 CFU i.p., antibiotic 100 μg/kg at 4 hours, terminal blood draw 8 hours after infection; for ELLecSA signal in treated group vs sham treatment: wistar rats, treatment four hours after infection, blood draw after another four hours
[4] = test system: amp-C mutant Enterobacter cloacae; assay: Time course antibiotic treatment of amp-C mutant Enterobacter cloacae, MAMP detection by ELLecSA; assay type: cell-based; conditions: 100 μg/mL antibiotic

Compound: CO/N=C(\C(=O)N[C@@H]1C(=O)N2C(C(=O)O)=C(CSc3nc(=O)c(=O)[nH]n3C)CS[C@H]12)c1csc(N)n1 [ceftriaxone]
- treatment efficacy from increase or spike in ELLecSA signal over time [1]: effective
- time to MAMP release after addition of the active antibiotic ([1]; about 5e7 CFU Enterobacter cloacae): ≤ 30 min
- susceptibility of E. cloacae to the antibiotic [1]: susceptible

Compound: NCC[C@H](O)C(=O)N[C@@H]1C[C@H](N)[C@@H](O[C@H]2O[C@H](CN)[C@@H](O)[C@H](O)[C@H]2O)[C@H](O)[C@H]1O[C@H]1O[C@H](CO)[C@@H](O)[C@H](N)[C@H]1O [amikacin]
- susceptibility of the E. coli strain [2]: sensitive

Compound: CC(=O)OCC1=C(C(=O)O)N2C(=O)[C@@H](NC(=O)Cc3cccs3)[C@H]2SC1 [Cefalotin]
- susceptibility of E. cloacae to the antibiotic [1]: naturally resistant

Compound: CO/N=C(\C(=O)N[C@@H]1C(=O)N2C(C(=O)[O-])=C(C[N+]3(C)CCCC3)CS[C@H]12)c1csc(N)n1 [cefepime]
- susceptibility of the E. coli strain [2]: intermediate susceptibility
- ELLecSA levels, increase over baseline (no antibiotic) [3]: six
- ELLecSA signal in treated group vs sham treatment [3]: significant increase

Compound: C[C@@H](O)[C@H]1C(=O)N2C(C(=O)O)=C(S[C@@H]3CN[C@H](C(=O)N(C)C)C3)[C@H](C)[C@H]12 [meropenem]
- ELLecSA levels, increase over baseline (no antibiotic) [3]: 2 fold
- ELLecSA signal in treated group vs sham treatment [3]: significant increase

Compound: CC(C)(O/N=C(\C(=O)N[C@@H]1C(=O)N2C(C(=O)[O-])=C(C[n+]3ccccc3)CS[C@H]12)c1csc(N)n1)C(=O)O [ceftazidime]
- susceptibility of amp-C mutant E. cloacae [4]: resistant

Compound: Cc1nnc(SCC2=C(C(=O)O)N3C(=O)[C@@H](NC(=O)Cn4cnnn4)[C@H]3SC2)s1 [cefazolin]
- treatment efficacy from increase or spike in ELLecSA signal over time [1]: ineffective
- susceptibility of E. cloacae to the antibiotic [1]: resistant

— patent US12553892B2, “Assays for antimicrobial activity and applications thereof” (PRESIDENT AND FELLOWS OF HARVARD COLLEGE, priority 2013, dated 2026)
